Results from patent publication US8946302B2, “Selective sigma-1 receptor ligands” (Wisconsin Alumni Research Foundation, priority 2008, dated 2015).
“And” between values parts separate entries of the source, which are not always exact repeats. Identical values can stand only once. Like-named read-outs stand apart in the source and are kept apart here.

Tests used:
[1] = biological target: T1, sigma-1 receptor (Cavia porcellus, UniProt Q60492); assay: Affinity for the sigma-1 receptor (Table 3); assay type: binding; parameters: from tissue
[2] = biological target: T2, sigma-2 receptor (Rattus norvegicus, UniProt Q5U3Y7); assay: Sigma-2 competitive binding, [3H]-DTG with (+)-pentazocine, rat liver membranes (Example 6); parameters: from tissue; host or cells: rat liver membranes; conditions: rat liver membranes, n = 3; read-out: Sigma2 KD values
T2 sequence (Q5U3Y7 1-176): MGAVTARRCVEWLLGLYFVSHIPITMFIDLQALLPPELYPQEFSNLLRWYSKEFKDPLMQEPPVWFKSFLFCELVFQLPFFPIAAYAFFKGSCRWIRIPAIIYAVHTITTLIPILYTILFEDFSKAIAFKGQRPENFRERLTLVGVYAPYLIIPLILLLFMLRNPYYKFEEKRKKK
Procedure: (§2) Minced frozen rat livers or guinea pig livers (65 g) were thawed in 100 mL homogenization buffer (10 mM phosphate buffer pH 7.4 containing 0.32M sucrose, 1 M MgSO4, 0.5 M EGTA, 1 mM phenylmethylsulphonyl fluoride (PMSF), 10 μg/mlleupeptin, 1 μg/ml pepstatin A, 10 μg/ml p-toluenesulfonyl-L-arginine methyl ester (TAME) and then homogenized on ice with a Brinkman polytron homogenizer (setting 6, 4 bursts of 10 second each) followed by a glass homogenizer (Teflon pestle by 6 slow passes at 3,000 rpm). The homogenized tissues were then centrifuged at 17,000 g for 10 minutes. The supernatants were re-centrifuged at 100,000 g for 1 hour. The microsomal pellets were resuspended in homogenization buffer, snap frozen with dry ice-ethanol, and stored at −80° C. at a final protein concentration of 20 mg/mL.
(§3) Assays for sigma-1 were performed using 10 nM (+)-[^3H]pentazocine in guinea pig liver homogenates (25 μg/well) incubated at 30° C. for 1 hour with several concentrations of competing ligands. After incubation, membranes were harvested on a 0.5% PEI-treated Whatman GF/B filters using a Brandel Cell Harvester. (+)-[^3H]pentazocine binding was determined by liquid scintillation counting. […] Serial concentrations of the compounds evaluated were added to the reactions for 45 minutes at 30° C. and the samples vacuum filtered through 0.5% polyethyleneimine (PEI) treated Whatman GF/B as described above to measure displacement of the radioligands from the sigma receptor subtypes.

[3] = biological target: T1, sigma-1 receptor; assay: Sigma-1 competitive binding, (+)-[3H]pentazocine, guinea pig liver membranes (Example 6); parameters: from tissue; host or cells: guinea pig liver membranes; conditions: for Kd: guinea pig liver membranes, n = 3, read-out: Sigma 1 KD values;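 on all read-outs here: compounds tested over serial concentrations, 45 min incubation at 30 °C with membrane preparations, read-out is displacement of bound radioligand from the receptor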
Procedure: as §2, §3

[4] = biological target: T3, purified sigma-1 receptor (Cavia porcellus, UniProt Q60492); assay: Competitive displacement of [3H]-(+)-pentazocine at the pure sigma-1 receptor; assay type: binding, guinea pig; conditions: read-out: Ki Pure σ-1R
T3 construct: made in house; host or cells: E. coli BL21 DE3
Procedure: A guinea pig sigma-1 receptor was purified as previously described (Ramachandran et al., Protein Expr. Purif., 2007. 51(2): 283-92). The pMal P2X plasmid (New England Biolabs) encoding the guinea pig sigma-1 receptor on the C-terminus of the E. coli Maltose Binding Protein was used for purification. The sigma-1 receptor on its C-terminus carried a hexa-histadine epitope tag. Protein was expressed in the E. coli strain BL21 DE3 (Novagen) with 0.6 mM IPTG. The E. coli pellet was sonicated and centrifuged at 100,000 g for 1 hour to separate the particulate and soluble fractions. The particulate fraction was extracted with Triton X-100, centrifuged and the extract was loaded onto an amylose resin (New England Biolabs, E-802). After washing the resin with buffer containing 0.5% Triton X-100, the MBP-sigma-1 receptor fusion protein was eluted with buffer containing 10 mM maltose.
The MBP-sigma-1-receptor fusion protein was cleaved with Factor Xa protease (Novagen) at room temperature for 24-48 hours and the cleavage was monitored with SDS-polyacrylamide gel electrophoresis. The sigma-1 receptor from the Factor Xa cleavage was purified with a HIS-Select HC Nickel affinity gel (Sigma-Aldrich P6611) in a batch format. The resin was washed with buffer containing 0.5% Triton X-100 detergent and the beads were separated by a brief centrifugation at 4000 rpm in a microcentrifuge. After washing to remove MBP, the pure sigma-1 receptor was eluted in buffer containing 250 mM imidazole.
To remove the undigested MBP-sigma-1 receptor fusion protein that is carried over in the Ni^2+ purification, the eluate from the Ni^2+ purification was incubated with Anti-MBP antibody conjugated to agarose (Vector Laboratories, Burlingame, Calif.) at 4° C. for 18-24 hours. The beads were separated by centrifugation and the supernatant contained the pure sigma-1 receptor.
Competition ligand binding to the pure sigma-1 receptor was performed as previously described. […] After incubation at 30° C. for 60 minutes, the reaction was terminated by rapid filtration through glass fiber filters (Whatman GF/B), using a Brandel cell harvester (Brandel, Gaithersburg, Md.). The glass fiber filters were pre-soaked in 0.5% polyethyleneimine (PEI) for at least 1 hour at room temperature (˜23° C.). Filters were washed 4 times with 4 mL of ice-cold 50 mM Tris-C1, pH 8.0. Radioactivity was quantified by liquid scintillation counting using a Packard model 1600 CA scintillation counter.

[5] = biological target: T4, σ-1 Sites (Cavia porcellus, UniProt Q60492); assay: σ-1 sites radioligand binding, guinea pig liver membranes (Table 2); conditions: for Ki: guinea pig liver membranes
T4 construct: from tissue
Procedure: as §3

[6] = test system: tumor cell lines; assay: Cytotoxicity assays, various tumor cell lines (statements in words); assay type: cell-based, human
Procedure: Because sigma-1 receptors are overexpressed in numerous tumor cell lines, which include breast cancer, lung carcinoma, renal carcinoma, colon carcinoma, sarcoma, brain tumors, melanoma, glioblastoma, neuroblastoma, and prostate cancer, the ability of the compounds to inhibit the growth of various tumor cell lines were tested.
(§1) Multi-plex cytotoxicity assays were performed by the Keck-UWCCC Small Molecule Screening Facility (Madison, Wis.). Specific methodology can be found online at http://hts.wisc.edu/Resources.htm#mpa.

[7] = biological target: T5, σ-2 Sites (Rattus norvegicus, UniProt Q5U3Y7); assay: σ-2 sites radioligand binding, rat liver membranes (Table 2)
T5 construct: from tissue
T5 sequence (Q5U3Y7 1-176): T2 sequence (Q5U3Y7 1-176)
Procedure: as §3

[8] = test system: SKOV-3; assay: Cytotoxicity assay SKOV-3; assay type: cell-based; conditions: Homo sapiens, SK-OV-3, HU Ovarian, read-out: IC50 (SE) growth inhibition
Procedure: as §1

[9] = test system: MCF7; assay: Cytotoxicity assay MCF7; assay type: cell-based; conditions: Homo sapiens, HU Breast, read-out: IC50 (SE) growth inhibition
Procedure: as §1

[10] = test system: SF268; assay: Cytotoxicity assay SF268; assay type: cell-based; conditions: Homo sapiens, SF-268, HU CNS, read-out: IC50 (SE) growth inhibition
Procedure: as §1

[11] = test system: Du145; assay: Cytotoxicity assay Du145; assay type: cell-based; conditions: Homo sapiens, DU-145, HU Prostate, read-out: IC50 (SE) growth inhibition
Procedure: as §1

[12] = test system: HT-29; assay: Cytotoxicity assay HT-29; assay type: cell-based; conditions: Homo sapiens, HU Colorectal, read-out: IC50 (SE) growth inhibition
Procedure: as §1

[13] = test system: A549; assay: Cytotoxicity assay A549; assay type: cell-based; conditions: Homo sapiens, HU lung, read-out: IC50 (SE) growth inhibition
Procedure: as §1

[14] = test system: MB-MDA-231; assay: Cytotoxicity assay MB-MDA-231; assay type: cell-based; conditions: Homo sapiens, HU Breast, read-out: IC50 (SE) growth inhibition
Procedure: as §1

[15] = test system: MCP10A; assay: Cytotoxicity assay MCP10A; assay type: cell-based; conditions: Homo sapiens, HU Breast, read-out: IC50 (SE) growth inhibition
Procedure: as §1

[16] = test system: HI299; assay: Cytotoxicity assay HI299; assay type: cell-based; conditions: Homo sapiens, HU Lung, read-out: IC50 (SE) growth inhibition
Procedure: as §1

[17] = test system: NCI-H460; assay: Cytotoxicity assay NCI-H460; assay type: cell-based; conditions: Homo sapiens, HU lung, read-out: IC50 (SE) growth inhibition
Procedure: as §1

[18] = test system: HCT-45; assay: Cytotoxicity assay HCT-45; assay type: cell-based; conditions: Homo sapiens, HU Colorectal, read-out: IC50 (SE) growth inhibition
Procedure: as §1

T1 sequence (Q60492 whole entry): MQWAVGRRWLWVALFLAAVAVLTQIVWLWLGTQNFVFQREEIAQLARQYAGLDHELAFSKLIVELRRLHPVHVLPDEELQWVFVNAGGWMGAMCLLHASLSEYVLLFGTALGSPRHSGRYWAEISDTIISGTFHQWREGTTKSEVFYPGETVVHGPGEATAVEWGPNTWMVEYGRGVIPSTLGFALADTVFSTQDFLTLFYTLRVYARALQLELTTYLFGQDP
T3 sequence (Q60492 whole entry): as above
T4 sequence (Q60492 whole entry): as above

**Q.** With `CCCCN(CCCC)CCCc1ccc([N+](=O)[O-])cc1` [HD2] as the compound, how does the Kd ([1]; read-out: Sigma-1 KD) read?
**A.** 0.36 nM

**Q.** Which Kd [2] does the source give for `CCCN(CCCc1ccc(F)cc1)Cc1ccc(N)c(I)c1` [Compound 14, N-Propyl-N-(4-amino-3-iodo-benzyl)-3-(4-fluorophenyl)propylamine] here?
**A.** 133000 nM

**Q.** And the “Ratio (σ2/σ1)” value [3]?
**A.** 0.3389

**Q.** And the Kd [3]?
**A.** 393000 nM

**Q.** How did the Kd ([1]; read-out: Sigma-1 KD) turn out when `CCCCCCCNCCCc1ccccc1` [UC1] was run?
**A.** 12 nM

**Q.** `CCCCNCc1ccc([N+](=O)[O-])cc1` [Compound 16, N-Butyl-N-4-nitrobenzylamine] was tested. Which Kd [2] did it give?
**A.** 1680 nM

**Q.** And the “Ratio (σ2/σ1)” value [3]?
**A.** 1.4622

**Q.** And the Kd [3]?
**A.** 1150 nM

**Q.** With `CCCCCCCCCCCCN` [Dodecylamine] as the compound, how does the Ki ([4]; [3H]-(+)-pentazocine 10 nM) read?
**A.** 180 nM and 200 nM

**Q.** What does the source list for `NCCCc1ccccc1` [Compound 2]?
**A.** Kd [2]: 270000 nM; Ratio (σ2/σ1) [3]: 3.92; Kd [3]: 68900 nM

**Q.** What does the source list for `CCCCCCCCCCCCNCCCc1ccc([N+](=O)[O-])cc1` [Compound 1f, N-(3-(4-Nitrophenyl)propyl)dodecan-1-amine]?
**A.** Ki [5]: 5170 nM; cytotoxicity / tumor cell growth inhibition [6]: remarkable activity for inhibiting tumor growth; Ki [7]: 2380 nM; Ki ([4]; [3H]-(+)-pentazocine): 31.8 nM; Kd ([1]; read-out: Sigma-1 KD): 0.39 nM

**Q.** With `CCCN(Cc1ccc([N+](=O)[O-])cc1)C(=O)CCc1ccc(F)cc1` [Compound 13, N-Propyl-N-(4-nitro-benzyl)-3-(4-fluorophenyl)propionamide] as the compound, how does the Kd [2] read?
**A.** 236000 nM

**Q.** What does the source list for `CCCCNCCCc1ccc([N+](=O)[O-])cc1` [Compound 1b, N-(3-(4-Nitrophenyl)propyl)butan-1-amine]?
**A.** Ki [5]: 3 nM; σ-1 selectivity σ-2 Ki/σ-1 Ki ([5]; σ-2 rat liver / σ-1 guinea pig liver membranes): 7; Ki [7]: 22 nM; Ki ([4]; [3H]-(+)-pentazocine): 20 nM

**Q.** How did the Ki ([4]; [3H]-(+)-pentazocine 10 nM) turn out when `CCCCCN` [Amylamine] was run?
**A.** 167000 ± 35200 nM

**Q.** Which Kd [1] does the source give for `CCCN(CCC)CCc1c[nH]c2ccccc12` [DPT, reference compound] here?
**A.** 1600 nM

**Q.** For `CCCCCCCCN(CCCCCCCC)CCCc1ccc(F)cc1` [Compound 8, N,N-Dioctyl-3-(4-fluorophenyl)propylamine], which Kd [2] is on record?
**A.** 1650 nM

**Q.** And the “Ratio (σ2/σ1)” value [3]?
**A.** 2.49

**Q.** Which results are given for `CCCN(CCCc1ccc([N+](=O)[O-])cc1)CCc1ccc(N)cc1` [Compound 18, N-Propyl-N-4-aminophenylethyl-3-(4-nitrophenyl)propylamine]?
**A.** Kd [2]: 83.6 nM; IC50 [8]: > 100000 nM; IC50 [9]: 86100 nM; IC50 [10]: > 100000 nM; IC50 [11]: > 100000 nM; Ratio (σ2/σ1) [3]: 13.93 ^; IC50 [12]: > 100000 nM; IC50 [13]: > 100000 nM; IC50 [14]: > 100000 nM; IC50 [15]: > 100000 nM; IC50 [16]: > 100000 nM; IC50 [17]: > 100000 nM; IC50 [18]: > 100000 nM

**Q.** For `CCCN(CCCc1ccc([N+](=O)[O-])cc1)CCc1ccc(N)cc1` [HD4], which Kd ([1]; read-out: Sigma-1 KD) is on record?
**A.** 6 nM

**Q.** `CCCN(CCCc1ccc(F)cc1)CCc1ccc(N=[N+]=[N-])c(I)c1` [HD5] was tested. Which “cytotoxicity / tumor cell growth inhibition” value [6] did it give?
**A.** potent cell growth inhibitor of both MB-MDA-231 and MCF7

**Q.** `CCCCCCCCCCCCNCCCc1ccccc1` [Compound 1e, N-(3-Phenylpropyl)dodecan-1-amine] was tested. Which Ki [5] did it give?
**A.** 5300 nM

**Q.** And the Ki [7]?
**A.** 2100 nM

**Q.** What about the Ki ([4]; [3H]-(+)-pentazocine) of the same compound?
**A.** 63.2 nM

**Q.** Which Kd ([1]; read-out: Sigma-1 KD) does the source give for `CCCCN(CCCC)CCCc1ccc(F)cc1` [HD1] here?
**A.** 17.7 nM
